Reference: US20250213622A1 (priority 2022, published 2025)
Counter-ions that a name gives are not always drawn.

Key:
Format in all cases: in vivo, C57BL/6J mice
[1] = test system: subacute MPTP mouse model; assay: Open field test, total movement distance, subacute MPTP mouse model; settings: for Total movement distance in the open field test: Selegiline 0.5 mg/kg/d i.p.
Method: (§1) The mice were weighed and recorded, and injected subcutaneously at the back of the neck at 20 mg/kg, once a day for 5 consecutive days. Subsequent experiments were performed on the 1st, 3rd, 7th and 14th days after the last administration.
(§2) 128 healthy adult mice were randomly divided into six groups according to body weight, including normal control (Sham) group (n=20), MPTP model group (n=28), low-dose Lepalvir (10 U/kg/d) treatment group (n=20), medium-dose Lepalvir (20U/kg/d) treatment group (n=20), high-dose Lepalvir (40 U/kg/d) treatment group (n=20) and positive control drug Selegiline (0.5 mg/kg/d) treatment group (n=20). Among them, mice in the Lepalvir and Selegiline treatment groups were injected with corresponding doses intraperitoneally 1 hour after the first MPTP administration, and continued for 7 or 14 days, once a day. Mice in the MPTP model group were given an equal volume of normal saline (0.1 mL/10 g). Mice in the sham group were only given an equal volume of normal saline (0.1 mL/10 g).
(§3) Behavioral assessment was performed on the 1st, 3rd, 7th and 14th days after the last administration of MPTP.
The open field test was used to evaluate the autonomous movement ability of mouse. The open field apparatus was made of opaque blue plastic and was 60 cm×60 cm×45 cm in size. During the test, each mouse was placed into the box from the central area, and the movement trajectory of each mouse within 5 minutes was recorded at the same time. The total movement distance was calculated using software (Clever Sys Inc., VA, USA). After each mouse was tested, the open field area was wiped with 75% ethanol to prevent the smell of the previous mouse from affecting the next mouse.

[2] = test system: subacute MPTP mouse model; assay: Pole climbing test (T-Turn, T-TLA), subacute MPTP mouse model; settings: Selegiline 0.5 mg/kg/d i.p.
Method: as §1, §2, §3
The pole climbing test was used to evaluate the motor coordination function of mouse. The pole used was 1 cm in diameter and 50 cm in height. A wooden ball with a diameter of 1.2 cm was fixed to the top of the pole. The pole was wrapped with anti-slip tape to prevent the mouse from slipping. The mouse was placed on the top of the pole with its head facing up. When the mouse started to […], the timer started and the time it took for the mouse to cross the top of the pole (T-Turn) from the start of the movement and the time it took for the mouse to climb down to the bottom with four paws landing on the ground from the start of the movement (T-TLA) were recoded. Before the formal test, three consecutive trainings were required for each mouse. During the test, three consecutive measurements were required, and the shortest time was selected.

[3] = test system: subacute MPTP mouse model; assay: Rotarod test, latency, subacute MPTP mouse model; settings: for Latency time: Selegiline 0.5 mg/kg/d i.p.
Method: as §1, §2, §3
The rotarod test was used to evaluate the motor balance and limb coordination of mouse. The mouse was placed on the drum of the Rotarod tester, and the speed was set to increase uniformly from 5 rpm/min to 25 rpm/min within 2 minutes. When the mouse fell from the drum to the sensing area below, an infrared sensor would receive the signal and record the time the mouse moved on the drum of the instrument. Before the formal test, three consecutive trainings were required for each mouse. During the test, three consecutive measurements are required, and the average falling time was selected (latency).

[4] = test system: Nissl-positive neurons in the substantia nigra pars compacta; assay: Nissl staining, neuron count in substantia nigra pars compacta, subacute MPTP mouse model; settings: for Number of Nissl-positive neurons in the substantia nigra pars compacta: Selegiline 0.5 mg/kg/d i.p.
Method: as §1, §2
(§4) On day 7 and day 14 after the last administration of MPTP respectively, half of the mice in each group were selected, anesthetized with 4% chloral hydrate, and perfused with saline +4% PFA to obtain brain tissue. After gradient dehydration in 20% (v/v) and 30% (v/v) sucrose solutions for 3 days respectively, the mouse brain tissue was embedded in OCT glue and frozen, and the Microtome Cryostat (Leica) was used to continuously slice the tissue (20 μm), and the brain slices of the relevant regions were collected, placed in freezing solution (glycerol: 0.01M PBS=1:1) and stored at −80° C. for use.
Nissl bodies are a type of basophilic substance in the cytoplasm that is widely found in various neurons, and thus the number of neurons in the relevant brain regions was calculated by Nissl staining. Staining was performed using the Nissl staining kit.
(§5) Immunohistochemical positive cells were counted using the Stereo Investigator (MBF bioscience) system and the number of Nissl body-positive cells and TH+ cells in the substantia nigra pars compacta were calculated. […]

[5] = test system: TH-positive neurons in the substantia nigra pars compacta; assay: TH (tyrosine hydroxylase) staining, neuron count in substantia nigra pars compacta, subacute MPTP mouse model; settings: for Number of TH-positive neurons in the substantia nigra pars compacta: Selegiline 0.5 mg/kg/d i.p.
Method: as §1, §2, §4
TH mainly marks dopaminergic neurons in the substantia nigra pars compacta. […] The midbrain slices were obtained, washed once with 0.01 M PBS for 10 min, and then incubated with 3% H2O2 for 15 min to remove endogenous peroxidase activity. […]
as §5

[6] = positive control Selegiline 0.5 mg/kg/d, day 1, 3, 7, and 14
[7] = positive control Selegiline 0.5 mg/kg/d, day 7 and 14

`C#CCN(C)[C@H](C)Cc1ccccc1` [Selegiline, Selegiline hydrochloride] was tested, and the “Total movement distance in the open field test” value (“Total movement distance” below) ([1]; 1 day after last MPTP) was 1269 ± 138 mm, the “Total movement distance” value ([1]; 3 days after last MPTP) was 1359 ± 68 mm and the “Total movement distance” value ([1]; 7 days after last MPTP) was 684 ± 68 mm. The “Total movement distance” value ([1]; 14 days after last MPTP) was 578 ± 51 mm, the “Effect on MPTP-induced reduction in total distance traveled (in words)” value [1, 6] was “significantly improved” and the T-TLA ([2]; Day 1 after last MPTP) was 9.23 ± 0.65 s. It also gave a T-Turn ([2]; Day 1 after last MPTP) of 1.57 ± 0.10 s, a T-TLA ([2]; Day 3 after last MPTP) of 5.96 ± 0.49 s and a T-Turn ([2]; Day 3 after last MPTP) of 1.35 ± 0.09 s. It also gave a T-TLA ([2]; Day 7 after last MPTP) of 7.61 ± 0.91 s, a T-Turn ([2]; Day 7 after last MPTP) of 1.49 ± 0.14 s and a T-TLA ([2]; Day 14 after last MPTP) of 7.90 ± 1.17 s. The T-Turn ([2]; Day 14 after last MPTP) was 1.49 ± 0.20 s, the Latency time ([3]; Day 1 after last MPTP) was 160.2 ± 4.8 s and the Latency time ([3]; Day 3 after last MPTP) was 173.1 ± 2.2 s. For the same molecule, the Latency time ([3]; Day 7 after last MPTP) was 168.5 ± 3.5 s, the Latency time ([3]; Day 14 after last MPTP) was 166.7 ± 4.2 s and the “Effect on MPTP-induced shortening of rotarod latency (in words)” value [3, 6] was “significantly improved”. For the same molecule, the “Number of Nissl-positive neurons in the substantia nigra pars compacta” value ([4]; Day 7 after last MPTP) was 10688 ± 458, the “Number of Nissl-positive neurons in the substantia nigra pars compacta” value ([4]; Day 14 after last MPTP) was 11024 ± 539 and the “Effect on MPTP-induced decrease in number of Nissl-stained positive neurons (in words)” value [4, 7] was “significantly improved”. The “Number of TH-positive neurons in the substantia nigra pars compacta” value ([5]; Day 7 after last MPTP) was 9578 ± 441, the “Number of TH-positive neurons in the substantia nigra pars compacta” value ([5]; Day 14 after last MPTP) was 9670 ± 692 and the “Effect on MPTP-induced decrease in number of TH-positive neurons (in words)” value [5, 7] was “significantly improved”.
